Columns and labels:
human albumin = human albumin (Homo sapiens, UniProt P02768); assay: Bilirubin binding before and after adding sulfisoxazole to a bilirubin/human albumin sample
Excerpt: The clinically relevant quantification of bilirubin binding are the mass action variables above (BTotal, BFree, BTotal_2, BFree_2, BTmax, and KA) constitute a Bilirubin Binding Panel (BBP). Optionally, BTmax and KA can be used to determine whether a newborn binds bilirubin normally.
Measuring Total and Unbound Bilirubin (BTotal and BFree): The peroxidase test (see, e.g., Jacobsen J, Wennberg R P. Determination of unbound bilirubin in the serum of newborns. Clin Chem 1974; 20:783-789) measures both BTotal and BFree. This test is used clinically in Japan. In alternative embodiments, novel modifications of methods as provided herein measure BFree at two horseradish peroxidase levels to accurately determine BFree and measure BTotal and BFree before and after bilirubin enrichment of a plasma or other blood sample to provide BTmax and KA to complete the Bilirubin Binding Panel (BBP) described herein. […] The peroxidase test is based on the horse radish peroxidase (HRP) catalyzed oxidation of bilirubin by peroxide. Bilirubin absorbs light maximally at 440 nm when no albumin is present and at 460 nm when bound to albumin. Bilirubin bound to albumin is protected from oxidation and only BFree is oxidized. The light absorbance at 440 nm (no albumin) or 460 nm (albumin present) decreases as bilirubin is oxidized, and the reaction rate constant, Kp, can be determined using known bilirubin and HRP concentrations in solutions without albumin present (i.e. all the bilirubin is unbound or “free”) as shown in the equivalent velocity equations below: […]
BTotal is calculated from the absorbance prior to adding HRP and H2O2 and BFree from the change in absorbance following addition of HRP/H2O2 as further described below. […]
BTotal is calculated by dividing the initial absorbance by the known extinction coefficient (0.827/cm light path length for BTotal in […]) and BFree is calculated from the change in absorbance at 460 nm after adding HRP/H2O2. […]

human defatted albumin = human defatted albumin (Homo sapiens, UniProt P02768); assay: Bilirubin binding isotherm in artificial serum containing human defatted albumin (peroxidase test); conditions: albumin 3.0 g/dL
Chain of human defatted albumin (P02768 25-609): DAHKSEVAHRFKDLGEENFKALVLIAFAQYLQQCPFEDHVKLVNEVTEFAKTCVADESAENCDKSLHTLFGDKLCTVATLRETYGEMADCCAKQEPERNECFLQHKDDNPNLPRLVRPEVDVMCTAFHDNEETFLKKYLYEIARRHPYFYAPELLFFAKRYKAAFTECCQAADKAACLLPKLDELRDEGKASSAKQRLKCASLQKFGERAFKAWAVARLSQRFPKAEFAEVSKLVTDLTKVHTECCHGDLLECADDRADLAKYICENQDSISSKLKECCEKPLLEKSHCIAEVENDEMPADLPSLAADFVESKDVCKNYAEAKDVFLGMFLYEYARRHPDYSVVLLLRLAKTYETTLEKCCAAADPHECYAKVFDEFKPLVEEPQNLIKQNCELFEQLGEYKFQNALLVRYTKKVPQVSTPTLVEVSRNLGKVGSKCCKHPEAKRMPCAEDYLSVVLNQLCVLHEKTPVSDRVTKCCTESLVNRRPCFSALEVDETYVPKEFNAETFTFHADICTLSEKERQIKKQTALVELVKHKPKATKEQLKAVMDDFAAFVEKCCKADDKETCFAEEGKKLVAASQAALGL
Description: FIG. 5 illustrates the change in BFree (black dots) as BTotal increases. The negative intercept of 1/BFree versus 1/BTotal, i.e. KA, is […] and the negative slope/intercept, i.e. BTmax, is 37.5 mg/dL. The BTmax and KA in Table 3 are calculated as described above using the lowest BTotal (8.3 mg/dL) and BFree (0.51 μg/dL) paired with each of the other five measures of BTotal and BFree. The mean BTmax and KA of all 15 possible pairings in TABLE 4 are 39.1 mg/dL and 0.56 dL/μg, respectively.
Non-linear regression analysis of the molar ratios versus the BFree from TABLE 3 were used to determine the best fit K1 (0.93 dL/μg) and K2 (0.04 dL/μg) using the stoichiometric equation
(§1) This test is used clinically in Japan.
(§2) BFree is obtained by measuring BFss at the additional HRP concentration and using […]

[1] = tested on: plasma bilirubin binding sites (e.g. albumin); assay: Bilirubin binding panel (peroxidase test, before and after bilirubin enrichment) in plasma of 31 newborns <28 weeks gestation; parameters: species or system human
Excerpt: [formula] can be readily solved by for BTmax and KA by measuring BTotal and BFree before and after enrichment of the sample with bilirubin to provide BTotal, BFree, and BTotal_2, BFree_2. These provide two equations with two unknowns (BTmax and KA), that can be solved for BTmax as shown below:
as §1, §2

Chain of human albumin (P02768 25-609): as above

Cc1noc(NS(=O)(=O)c2ccc(N)cc2)c1C [+ sulfa, sulfisoxazole]
KA (human albumin; 3.0 g/dL albumin, without or with sulfa): 0.20 dL/µg
effect of adding sulfisoxazole on bilirubin BFree (human albumin; bilirubin/human albumin sample, 3.0 g/dL albumin): about doubles the BFree

C=CC1=C(C)/C(=C/c2[nH]c(Cc3[nH]c(/C=C4\NC(=O)C(C)=C4C=C)c(C)c3CCC(=O)O)c(CCC(=O)O)c2C)NC1=O [bilirubin]
BFree (human defatted albumin; BTotal 8.3 mg/dL (BTotal/ATotal molar ratio 0.31)): 0.51 µg/dL
BFree (human defatted albumin; BTotal 11.7 mg/dL (molar ratio 0.44)): 0.92 µg/dL
BFree (human defatted albumin; BTotal 18.5 mg/dL (molar ratio 0.69)): 1.70 µg/dL
BFree (human defatted albumin; BTotal 22.2 mg/dL (molar ratio 0.83)): 2.39 µg/dL
BFree (human defatted albumin; BTotal 28.3 mg/dL (molar ratio 1.06)): 6.05 µg/dL
BFree (human defatted albumin; BTotal 31.3 mg/dL (molar ratio 1.18)): 9.88 µg/dL
BFree_2 (free bilirubin after bilirubin enrichment) ([1]; 25th-75th percentile, after enrichment): 1.1 to 3.3 µg/dL
BFree_2 (free bilirubin after bilirubin enrichment) ([1]; mean, after enrichment (mean BTotal_2 13.8 mg/dL)): 2.51 µg/dL
BFree_2 (free bilirubin after bilirubin enrichment) ([1]; median, after enrichment (median BTotal_2 13.7 mg/dL)): 1.93 µg/dL
BFree_2 (free bilirubin after bilirubin enrichment) ([1]; range, after enrichment (BTotal_2 6.3-23.0 mg/dL)): 0.42 to 10.61 µg/dL
BFree (human albumin; human, 8.3 mg/dL, pH 7.4): 0.51 µg/dL
